Assay results taken from US9827217B2, “Pharmaceutically acceptable salts of B-guanidinopropionic acid with improved properties and uses thereof” (Rgenix, Inc., priority 2015, dated 2017).
“Also recorded” adds a separate entry of the source.

Columns and labels:
Assay type in all cases: physicochemical
[1] = Experiments performed on 2:1 fumarate salt (Pattern 7C)
Description: To confirm the above hypothesis the following experiments (Table 24) were performed on the lyophilized sample (Pattern 7C): […]

[2] = Temperature cycling of 1:1 β-GPA fumarate
Description: The following (Table 25) experiments were performed to isolate possible polymorphic forms of 1:1 β-GPA fumarate.

[3] = Solid form stability of 1:1 β-GPA fumarate at various temperature/humidity conditions; conditions: for XRPD after stability study: a week
Description: The solid form stability of β-GPA fumarate was studied at various temperature/humidity conditions as listed in Table 22 for a week using saturated salt solution chambers. The samples were analyzed by XRPD after a week.

[4] = Determination of bulk and tapped density; conditions: for Tapped density (ρT): Tap density analyzer
Description: The bulk density of β-GPA oxalate (Pattern 18 B), succinate (Pattern 15A), and fumarate (Pattern 7A) were determined by pouring in a known amount of salt (g) into a measuring cylinder. The volume (Vi) occupied by the salt was recorded and the bulk density (ρB) was determined using equation 1. ρB=g/Vi (1)
The tapped densities of the salts were determined using a Tap density analyzer. A known amount of salt was poured (g) into a measuring cylinder and the initial volume was recorded and tapped using a Tap density analyzer. The final volume (Vf) after tapping was recorded and the tapped density (ρT) was calculated by using equation 2. ρT=g/Vf (2)

[5] = Solid form stability of salts in different solvents (slurry); conditions: 48 hours, room temperature
Description: Three salts were studied for solid form stability in water (disproportionation test), methanol, acetonitrile, and acetone:water (9:1) for 48 hours at room temperature.

[6] = Solid form stability of 1:1 β-GPA fumarate at various temperature/humidity conditions
[7] = Dynamic vapor sorption (moisture uptake)
Description: Samples were analyzed using an Aquadyne DVS-2 gravimetric water sorption analyzer. The relative humidity was adjusted between 2-95% and the weight of the sample was continuously monitored and recorded.
[…]: β-GPA maleate (1:1) Form II, β-GPA fumarate (1:1), β-GPA maleate (2:1), β-GPA succinate (2:1) and β-GPA oxalate (1:1) were analyzed by DVS experiment followed by XRPD analysis of the sample at the end of the experiment.
Sample 2162-64-1 was analyzed by DVS in triplicate and the post DVS samples were characterized by XRPD to identify the form at the end of the experiment.

[8] = Gravimetric solubility of β-GPA fumarate in solvents; conditions: fifteen solvents and solvent mixtures at 15 and 45° C.
Description: Solubility of β-GPA fumarate was measured gravimetrically in fifteen different solvents and solvent mixtures at 15 and 45° C. About 100 mg of the compound was dispensed in ten volumes (1 mL) of the solvent/solvent mixture and slurried for 48 hours. Table 23 represents the solubility of β-GPA fumarate in different solvents. After 48 hours the vials were centrifuged. The supernatant was collected and left for slow evaporation under vacuum at 45° C. and solubility was determined. The solids obtained after centrifugation and evaporation were analyzed by XRPD.

[9] = Flowability measurement using Hanson Flodex unit; conditions: density and Hanson Flodex data
Text: A cylindrical vessel is secured to the stand and above that a funnel is also secured such that the bottom of the funnel is close to the vessel. A powder load of ≈50-60 g is then poured through the funnel into the middle of the cylinder. The lever device is pulled to open the hole in the disk quickly and without vibration. If a powder slowly flows through the small-diameter holes, leaving a cavity shaped like an upside-down, truncated cone, the test is considered positive. If a powder flocculates in bulk and falls abruptly, forming a cylindrical cavity, the test is considered negative. […] If the experiment is negative, the powder is tested again with a disk having a larger hole.

[10] = Stability of free β-GPA at 40° C. at 75% humidity; conditions: 40° C. at 75% humidity after 4 weeks
[11] = Solubility of β-GPA in water
[12] = Determination of Carr's index and Hausner ratio; conditions: scale of Table 5
Text: The flow properties of β-GPA are sub-optimal. The bulk density is 0.389 g/cc and the tapped density is 0.627 g/cc. These measurements can be used to calculate the Carr's index and Hausner ratio for a substance. The Carr's index and Hausner ratio are indicators of flowability of a powder. As known in the art, e.g., as described in Carr R. L. Chem. Eng. 1965, 72, 163-168, the relationship to flowability of a powder to the Carr's index and Hausner ratio is based on the scale shown in Table 5 below.
Carr's index or Carr's compressibility index (C) is an indication of the compressibility of a powder. It can be calculated using the equation below: Carr's index(C)=100(Vi−Vf)/Vi (3)
The Hausner ratio is a number that is correlated to the flowability of a powder or granular material. It is calculated by using the equation below: Hausner ratio=Vi/Vf (4)

[13] = 50 mg slurried in 0.2 mL of water

## N=C(N)NCCC(=O)O.N=C(N)NCCC(=O)O.O=C(O)/C=C/C(=O)O [2:1 fumarate salt]
[1]
  Stability of the crystalline form of the 2:1 salt: unstable
[1]; [13]
  Result: XRPD pattern that Pattern 7C converted to: Pattern 7A
  Time to conversion of Pattern 7C to Pattern 7A: (within 10 minutes
[1]; heated at 50° C. 5-10 minutes
  Result: XRPD pattern that Pattern 7C converted to: Pattern 7A
[1]; humidity chamber with RH >95% for 48 hours
  Result: XRPD pattern that Pattern 7C converted to: Pattern 7A
[1]; mixed with Pattern 7A, undisturbed at room temperature (48 hours)
  Result: XRPD pattern that Pattern 7C converted to: Pattern 7A
[1]; slurried in water, heated, or under high humidity conditions
  Form conversion of the 2:1 salt: converted to the 1:1 salt

## N=C(N)NCCC(=O)O.O=C(O)/C=C/C(=O)O [β-GPA fumarate (1:1)]
[2]; 50° C. 2 hours, RT, 50° C. 48 hours
  Result (XRPD) after temperature cycling: Pattern 7A
[2]; dry ice-acetone 30 minutes, RT
  Result (XRPD) after temperature cycling: Pattern 7A
[2]; heated to 150° C. and brought to room temperature, three cycles
  Result (XRPD) after temperature cycling: Pattern 7A
[2]; heated to 165° C., immediately dry ice/acetone cooling bath 15 min
  Result (XRPD) after temperature cycling: Pattern 7D
[2]; heating at 160-165° C. (2162-84-7)
  Appearance after heating: yellow to brownish solid
[2]; vacuum oven 130° C. 2 hours, RT, 130° C. 48 hours
  Result (XRPD) after temperature cycling: Pattern 7A
[3]; 20 ° C., 43% relative humidity
  XRPD after stability study: Pattern 7A
[3]; 20 ° C., 59% relative humidity
  XRPD after stability study: Pattern 7A
[3]; 20 ° C., 73% relative humidity
  XRPD after stability study: Pattern 7A
[3]; 20 ° C., >95% relative humidity
  XRPD after stability study: Pattern 7A
[3]; 40 ° C., 82% relative humidity
  XRPD after stability study: Pattern 7A
[3]; 60 ° C., 80% relative humidity
  XRPD after stability study: Pattern 7A
[3]; various temperature/RH conditions of Table 22, a week
  XRPD after stability study (summary): retained the original XRPD pattern (Pattern 7A)
[4]
  Bulk density (ρB): 0.576 g/cc
  Tapped density (ρT): 0.613 g/cc
[5]
  Solid form stability (XRPD) after slurry in acetone:water (9:1): retain their XRPD pattern
  Solid form stability (XRPD) after slurry in acetonitrile: retain their XRPD pattern
  Solid form stability (XRPD) after slurry in methanol: retain their XRPD pattern
  Solid form stability (XRPD) after slurry in water (disproportionation test): retained their XRPD patterns
[5]; listed as 1:1 β-GPA fumarate
  Solid form stability (XRPD) after slurry in water (disproportionation test): retained their XRPD pattern
[6]; 60 ° C., 50% relative humidity, a week
  XRPD after stability study: Pattern 7A
[6]; sample 2162-64-1, RH>95% at room temperature (20° C.), 48 hours
  Solid form stability at high humidity (XRPD): retain its original XRPD pattern (Pattern 7A); also recorded: stable
[7]; XRPD of post DVS sample
  Solid form after the DVS experiment (XRPD): presence of two peaks from the β-GPA
[7]; XRPD of post DVS sample, listed as 1:1 fumarate
  Solid form after the DVS experiment (XRPD): presence of β-GPA peaks along with Pattern 7A
[7]; XRPD of post DVS sample, listed as 1:1 fumarate salt
  Solid form after the DVS experiment (XRPD): no form change
[7]; scaled-up sample 2162-64-1, DVS in triplicate
  Moisture uptake during DVS: less than 0.1%
[7]; scaled-up sample 2162-64-1, three DVS experiments
  Solid form after the DVS experiment (XRPD): identical to β-GPA fumarate (Pattern 7A); also recorded: did not exhibit any dissociation of the salt
[8]
  Solid form of precipitates after 48 hours slurries (XRPD): no form transformations
[9]
  Flow character (summary from the experimental data): excellent

## N=C(N)NCCC(=O)O.O=C(O)/C=C\C(=O)O [β-GPA maleate (1:1) Form II]
[5]
  Solid form stability (XRPD) after slurry in acetone:water (9:1): matched with the original pattern of the salt (Pattern 6D) along with some additional peaks
  Solid form stability (XRPD) after slurry in acetonitrile: retain its XRPD pattern
  Solid form stability (XRPD) after slurry in methanol: retain its XRPD pattern
  Solid form stability (XRPD) after slurry in water (disproportionation test): retained their XRPD patterns
[7]; XRPD of post DVS sample
  Solid form after the DVS experiment (XRPD): no form change

## N=C(N)NCCC(=O)O.O=C(O)C(=O)O [β-GPA oxalate (1:1)]
[4]
  Bulk density (ρB): 0.505 g/cc
  Tapped density (ρT): 0.623 g/cc
[5]
  Solid form stability (XRPD) after slurry in acetone:water (9:1): retain their XRPD pattern
  Solid form stability (XRPD) after slurry in acetonitrile: retain their XRPD pattern
  Solid form stability (XRPD) after slurry in methanol: retain their XRPD pattern
  Solid form stability (XRPD) after slurry in water (disproportionation test): retained their XRPD patterns
[5]; listed as 1:1 β-GPA oxalate
  Solid form stability (XRPD) after slurry in water (disproportionation test): retained their XRPD pattern
[7]; XRPD of post DVS sample
  Solid form after the DVS experiment (XRPD): retained their XRPD
[7]; XRPD of post DVS sample, listed as 1:1 oxalate salt
  Solid form after the DVS experiment (XRPD): no form change
[7]; XRPD of post DVS sample, listed as 1:1 β-GPA oxalate
  Solid form after the DVS experiment (XRPD): no form change
[9]
  Flow character (summary from the experimental data): fair

## N=C(N)NCCC(=O)O.N=C(N)NCCC(=O)O.O=C(O)CCC(=O)O [β-GPA succinate (2:1)]
[4]
  Bulk density (ρB): 0.405 g/cc
  Tapped density (ρT): 0.472 g/cc
[5]
  Solid form stability (XRPD) after slurry in acetone:water (9:1): presence of β-GPA
  Solid form stability (XRPD) after slurry in acetonitrile: retain its original form
  Solid form stability (XRPD) after slurry in methanol: retain its original form
  Solid form stability (XRPD) after slurry in water (disproportionation test): showed two peaks from β-GPA after 6 hours
[5]; listed as 2:1 β-GPA succinate
  Solid form stability (XRPD) after slurry in acetonitrile: retain its XRPD pattern
  Solid form stability (XRPD) after slurry in methanol: retain its XRPD pattern
  Solid form stability (XRPD) after slurry in water (disproportionation test): started showing up peaks from β-GPA after 6 hours
[7]; XRPD of post DVS sample
  Solid form after the DVS experiment (XRPD): retained their XRPD
[7]; XRPD of post DVS sample, listed as 2:1 succinate salt
  Solid form after the DVS experiment (XRPD): no form change
[7]; XRPD of post DVS sample, listed as 2:1 β-GPA succinate
  Solid form after the DVS experiment (XRPD): no form change
[9]
  Flow character (summary from the experimental data): good

## N=C(N)NCCC(=O)O [β-GPA, β-Guanidinopropionic acid, reference compound]
[4]
  Bulk density (ρB): 0.389 g/cc
  Tapped density (ρT): 0.627 g/cc
[10]
  Degradation: No degradation
[11]
  solubility: > 50 mg/mL
[12]
  Flow character by Carr's index: Very poor (32-37)
[7]; DVS, relative humidity cycled up to 95%
  Moisture uptake during the DVS experiment: around 0.1%
[7]; XRPD of post DVS sample
  Solid form after the DVS experiment (XRPD): No change in the solid form
[9]
  Flow character (summary from the experimental data): poor
